The record followed here is ChEMBL document CHEMBL1133414, “Bifunctional alkylating agents derived from duocarmycin SA: potent antitumor activity with altered sequence selectivity” (Bioorg Med Chem Lett, 2000).

The subject of this assay is L1210. The experiment in a line: In vitro cytotoxicity against L1210 cell line. The assay is classed as functional, cell-based. As to conditions: Mus musculus.

`COC(=O)c1cc2c([nH]1)C(=O)C=C1N(C(=O)c3cc4cc(OC)c(OC)c(OC)c4[nH]3)C[C@@H]3C[C@@]123` had an IC50 of 0.1 nM. Regarding `COC(=O)c1cc2c([nH]1)C(=O)C=C1N(C(=O)c3cc4c([nH]3)C(=O)C=C3N(C(=O)OC(C)(C)C)C[C@H]5C[C@]345)C[C@@H]3C[C@@]123`, the concentration for half-maximal inhibition (IC50) was determined as 0.04 nM.

`COC(=O)c1cc2c([nH]1)C(=O)C=C1N(C(=O)c3cc4c([nH]3)C(=O)C=C3N(C(=O)OC(C)(C)C)C[C@@H]5C[C@@]345)C[C@@H]3C[C@@]123` displayed an IC50 of 0.05 nM.

`COC(=O)c1cc2c([nH]1)C(=O)C=C1N(C(=O)c3cc4c([nH]3)C(=O)C=C3N(C(=O)OC(C)(C)C)C[C@H]5C[C@]345)C[C@H]3C[C@]123` returned an IC50 of 0.003 nM.

`COC(=O)c1cc2c([nH]1)C(=O)C=C1N(C(=O)c3cc4c([nH]3)C(=O)C=C3N(C(=O)OC(C)(C)C)C[C@@H]5C[C@@]345)C[C@H]3C[C@]123` (mixture of isomers) registered an IC50 of 0.005 nM. Next, `COC(=O)c1cc2c([nH]1)C(=O)C=C1N(C(=O)c3cc4cc(OC)c(OC)c(OC)c4[nH]3)C[C@H]3C[C@]123` [DUOCARMYCIN]: 0.01 nM.

As a reminder, the IC50 is the concentration that gives 50% inhibition. High values mean lower potency, low ones higher potency.
